The target of the test is T1, GABA A receptor α5β3γ2 (Homo sapiens, UniProt P18507+P31644).
T1 construct: expressed in transfected cells; host or cells: HEK293 cells, transiently transfected; membranes prepared
Nature of the test: [3H]flumazenil competition binding, human GABA A α5β3γ2. The following applies: competition for [3H]flumazenil (0.5 nM) binding, HEK293 cells expressing human (transiently transfected) α5β3γ2; means of two determinations; read-out: Ki[nM] hα5. As for the experimental part: Membrane Preparation and Binding Assay
The affinity of compounds at GABA A receptor subtypes was measured by competition for [3H]flumazenil (85 Ci/mmol; Roche) binding to HEK293 cells expressing rat (stably transfected) or human (transiently transfected) receptors of composition
Cell pellets were suspended in Krebs-tris buffer (4.8 mM KCl, 1.2 mM CaCl2, 1.2 mM MgCl2, 120 mM NaCl, 15 mM Tris; pH 7.5; binding assay buffer), homogenized by polytron for ca. 20 sec on ice and centrifuged for 60 min at 4° C. (50000 g; Sorvall, rotor: SM24=20000 rpm). The cell pellets were resuspended in Krebs-tris buffer and homogenized by polytron for ca. 15 sec on ice. Protein was measured (Bradford method, Bio-Rad) and aliquots of 1 mL were prepared and stored at −80° C.
Assays were incubated to equilibrium for 1 hour at 4° C. and harvested onto GF/C uni-filters (Packard) by filtration using a Packard harvester and washing with ice-cold wash buffer (50 mM Tris; pH 7.5). After drying, filter-retained radioactivity was detected by liquid scintillation counting. Ki values were calculated using Excel-Fit (Microsoft) and are the means of two determinations.

For orientation: Ki means the dissociation constant of the complex between target and ligand, obtained from inhibition or displacement.

Regarding `COc1cc(N2CCOCC2)ccc1-c1nnc(-c2c(-c3ccc(Cl)cc3)noc2C)o1` [Example 109, 4-(4-{5-[3-(4-Chloro-phenyl)-5-methyl-isoxazol-4-yl]-[1,3,4]oxadiazol-2-yl}-3-methoxy-phenyl)-morpholine], the Ki amounted to 2.2 nM.
As for `CC(C)c1onc(-c2ccccc2)c1-c1nnc(-c2ccc3c(c2)n(C)c(=O)n3C)o1` [Example 53, 5-[5-(5-Isopropyl-3-phenyl-isoxazol-4-yl)-[1,3,4]oxadiazol-2-yl]-1,3-dimethyl-1,3-dihydro-benzoimidazol-2-one], the Ki is 2.3 nM.
In the case of `Cc1onc(-c2ccccc2)c1-c1nnc(-c2ccc(C(=O)NC3CCOCC3)cc2)o1` [Example 81, 4-[5-(5-Methyl-3-phenyl-isoxazol-4-yl)-[1,3,4]oxadiazol-2-yl]-N-(tetrahydro-pyran-4-yl)-benzamide], the Ki was 86 nM.
Take `COc1cc(N2CCOCC2)c(F)cc1-c1nnc(-c2c(-c3ccccc3)noc2C)o1` [Example 114, 4-{2-Fluoro-5-methoxy-4-[5-(5-methyl-3-phenyl-isoxazol-4-yl)-[1,3,4]oxadiazol-2-yl]-phenyl}-morpholine]: the Ki was 6 nM.
For `COc1cc(N2CCOCC2)ccc1-c1nnc(-c2c(-c3cccc(F)c3)noc2C)o1` [Example 108, 4-(4-{5-[3-(3-Fluoro-phenyl)-5-methyl-isoxazol-4-yl]-[1,3,4]oxadiazol-2-yl}-3-methoxy-phenyl)-morpholine] the value was 11.3 nM.
As for `COc1cc(N2CCOCC2)ccc1-c1nnc(-c2c(-c3ccccc3)noc2C)o1` [Example 68, 4-{3-Methoxy-4-[5-(5-methyl-3-phenyl-isoxazol-4-yl)-[1,3,4]oxadiazol-2-yl]-phenyl}-morpholine], the inhibitory constant (Ki) came out at 4.2 nM.
Take `COc1ccccc1-c1nnc(-c2c(-c3ccccc3)noc2C2CC2)o1` [Example 69, 2-(5-Cyclopropyl-3-phenyl-isoxazol-4-yl)-5-(2-methoxy-phenyl)-[1,3,4]oxadiazole]: the inhibition constant Ki came to 8.1 nM.
As to `Cc1onc(-c2ccccc2)c1-c1nnc(-c2cccc(F)c2)o1` [Example 45, 2-(3-Fluoro-phenyl)-5-(5-methyl-3-phenyl-isoxazol-4-yl)-[1,3,4]oxadiazole], the Ki came to 100 nM.
For `Cc1onc(-c2ccccc2)c1-c1nnc(-c2cccs2)o1` [Example 121, 2-(5-Methyl-3-phenyl-isoxazol-4-yl)-5-thiophen-2-yl-[1,3,4]oxadiazole], the Ki is 115 nM.
On to `CCOc1ccccc1-c1nnc(-c2c(-c3ccccc3)noc2C)o1` [Example 8, 2-(2-Ethoxy-phenyl)-5-(5-methyl-3-phenyl-isoxazol-4-yl)-[1,3,4]oxadiazole], for which the Ki was 58.2 nM.
For `COc1cc(N2CCOCC2)ccc1-c1nnc(-c2c(-c3cccnc3)noc2C)o1` [Example 102, 4-{3-Methoxy-4-[5-(5-methyl-3-pyridin-3-yl-isoxazol-4-yl)-[1,3,4]oxadiazol-2-yl]-phenyl}-morpholine] the value was 146 nM; for `COc1cc(NC2CCN(C)CC2)ccc1-c1nnc(-c2c(-c3ccccc3)noc2C)o1` [Example 65, {3-Methoxy-4-[5-(5-methyl-3-phenyl-isoxazol-4-yl)-[1,3,4]oxadiazol-2-yl]-phenyl}-(1-methyl-piperidin-4-yl)-amine], 15.3 nM; for `CNCc1onc(-c2ccccc2)c1-c1nnc(-c2ccc(F)cc2OC)o1` [Example 88, {4-[5-(4-Fluoro-2-methoxy-phenyl)-[1,3,4]oxadiazol-2-yl]-3-phenyl-isoxazol-5-ylmethyl}-methyl-amine], 339 nM.
For the compound `COc1cc(NC2CCOCC2)ccc1-c1nnc(-c2c(-c3ccccc3)noc2C)o1` [Example 64, {3-Methoxy-4-[5-(5-methyl-3-phenyl-isoxazol-4-yl)-[1,3,4]oxadiazol-2-yl]-phenyl}-(tetrahydro-pyran-4-yl)-amine], the inhibitory constant (Ki) was 4.2 nM.
In the case of `Cc1onc(-c2ccccc2)c1-c1nnc(-c2ccnc(N3CCOCC3)c2)o1` [Example 55, 4-{4-[5-(5-Methyl-3-phenyl-isoxazol-4-yl)-[1,3,4]oxadiazol-2-yl]-pyridin-2-yl}-morpholine] it was 324 nM; in that of `COc1cc(F)ccc1-c1nnc(-c2c(-c3ccccc3)noc2C)o1` [Example 24, 2-(4-Fluoro-2-methoxy-phenyl)-5-(5-methyl-3-phenyl-isoxazol-4-yl)-[1,3,4]oxadiazole], 39.6 nM.
For the compound `COc1cc(F)ccc1-c1nnc(-c2c(-c3ccccc3)noc2CO)o1` [Example 92, {4-[5-(4-Fluoro-2-methoxy-phenyl)-[1,3,4]oxadiazol-2-yl]-3-phenyl-isoxazol-5-yl}-methanol], the Ki came out at 293 nM.
With `Cc1onc(-c2ccccc2)c1-c1nnc(-c2ccc3c(c2)n(C)c(=O)n3C)o1` [Example 51, 1,3-Dimethyl-5-[5-(5-methyl-3-phenyl-isoxazol-4-yl)-[1,3,4]oxadiazol-2-yl]-1,3-dihydro-benzoimidazol-2-one], the Ki amounted to 128 nM.
`COc1cc(NCCN2CCCC2=O)c(F)cc1-c1nnc(-c2c(-c3ccccc3)noc2C)o1` [Example 128, 1-(2-{2-Fluoro-5-methoxy-4-[5-(5-methyl-3-phenyl-isoxazol-4-yl)-[1,3,4]oxadiazol-2-yl]-phenylamino}-ethyl)-pyrrolidin-2-one]: the Ki was found to be 4.2 nM.
On to `Cc1onc(-c2ccccc2)c1-c1nnc(-c2ccc(C(F)(F)F)cc2)o1` [Example 50, 2-(5-Methyl-3-phenyl-isoxazol-4-yl)-5-(4-trifluoromethyl-phenyl)-[1,3,4]oxadiazole], for which the inhibition constant Ki amounted to 250 nM.
In the case of `COc1cc(N2CCOCC2)ccc1-c1nnc(-c2c(-c3ccccc3)noc2C2CC2)o1` [Example 77, 4-{4-[5-(5-Cyclopropyl-3-phenyl-isoxazol-4-yl)-[1,3,4]oxadiazol-2-yl]-3-methoxy-phenyl}-morpholine] it was 2.1 nM.
With `COc1cc(NCCN2CCNC2=O)c(F)cc1-c1nnc(-c2c(-c3ccccc3)noc2C)o1` [Example 133, 1-(2-{2-Fluoro-5-methoxy-4-[5-(5-methyl-3-phenyl-isoxazol-4-yl)-[1,3,4]oxadiazol-2-yl]-phenylamino}-ethyl)-imidazolidin-2-one], the Ki amounted to 12.8 nM.
`Cc1onc(-c2ccccc2)c1-c1nnc(-c2ccc3[nH]ccc3c2)o1` [Example 74, 5-[5-(5-Methyl-3-phenyl-isoxazol-4-yl)-[1,3,4]oxadiazol-2-yl]-1H-indole]: the Ki turned out to be 134 nM.
As for `Cc1onc(-c2ccccc2)c1-c1nnc(-c2ccc(-n3ccnc3C)cc2)o1` [Example 59, 2-[4-(2-Methyl-imidazol-1-yl)-phenyl]-5-(5-methyl-3-phenyl-isoxazol-4-yl)-[1,3,4]oxadiazole], the Ki was found to be 30.7 nM.
With `Cc1onc(-c2ccccc2)c1-c1nnc(-c2ccc(N3CCOCC3)cn2)o1` [Example 142, 4-{6-[5-(5-Methyl-3-phenyl-isoxazol-4-yl)-[1,3,4]oxadiazol-2-yl]-pyridin-3-yl}-morpholine], the Ki was 17.2 nM.
As to `Cc1onc(-c2ccccc2)c1-c1nnc(-c2ccc(N3CCS(=O)(=O)CC3)nc2)o1` [Example 141, 4-{5-[5-(5-Methyl-3-phenyl-isoxazol-4-yl)-[1,3,4]oxadiazol-2-yl]-pyridin-2-yl}-thiomorpholine 1,1-dioxide], the Ki amounted to 17.7 nM.
As to `Cc1onc(-c2ccccc2)c1-c1nnc(-c2ccccc2OC(F)F)o1` [Example 42, 2-(2-Difluoromethoxy-phenyl)-5-(5-methyl-3-phenyl-isoxazol-4-yl)-[1,3,4]oxadiazole], the inhibitory constant (Ki) was determined as 141 nM.
In the case of `COc1ccc(-c2nnc(-c3c(-c4ccccc4)noc3C)o2)c(OC)c1` [Example 10, 2-(2,4-Dimethoxy-phenyl)-5-(5-methyl-3-phenyl-isoxazol-4-yl)-[1,3,4]oxadiazole] it was 31.7 nM; in that of `COc1cc(-n2ccnc2C)ccc1-c1nnc(-c2c(-c3ccccc3)noc2C)o1` [Example 58, 2-[2-Methoxy-4-(2-methyl-imidazol-1-yl)-phenyl]-5-(5-methyl-3-phenyl-isoxazol-4-yl)-[1,3,4]oxadiazole], 13.9 nM; in that of `COc1cc(N2CCOCC2)ccc1-c1nnc(-c2c(-c3ccccc3)noc2N2CCOCC2)o1` [Example 107, 4-{4-[5-(2-Methoxy-4-morpholin-4-yl-phenyl)-[1,3,4]oxadiazol-2-yl]-3-phenyl-isoxazol-5-yl}-morpholine], 31.1 nM.
Turning to `COc1cc(N2CCSCC2)c(F)cc1-c1nnc(-c2c(-c3ccccc3)noc2C)o1` [Example 116, 4-{2-Fluoro-5-methoxy-4-[5-(5-methyl-3-phenyl-isoxazol-4-yl)-[1,3,4]oxadiazol-2-yl]-phenyl}-thiomorpholine], the Ki is 4.5 nM.
With `COc1cc(N2CCOCC2)ccc1-c1nnc(-c2c(-c3ccc(F)cc3)noc2C)o1` [Example 101, 4-(4-{5-[3-(4-Fluoro-phenyl)-5-methyl-isoxazol-4-yl]-[1,3,4]oxadiazol-2-yl}-3-methoxy-phenyl)-morpholine], the Ki is 14.5 nM.
For `COc1cc(N)ccc1-c1nnc(-c2c(-c3ccccc3)noc2C)o1` [Example 13, 3-Methoxy-4-[5-(5-methyl-3-phenyl-isoxazol-4-yl)-[1,3,4]oxadiazol-2-yl]-phenylamine] the value was 7.5 nM.

The values above are taken from patent US7956074B2, “Aryl-isoxazolo-4-yl-oxadiazole derivatives” (Hoffman-La Roche Inc., priority 2005, dated 2011).
